The values that follow come from patent US12622899B2 (PureTech LYT 100, Inc., priority 2018, dated 2026).

“And” between values parts separate entries of the source, which are not always exact repeats. Equal entries are not always repeated. Where two headings read alike, the source gives them in different places.

A short description of one data set: clinical. The following applies: both sexes, human, in vivo, 550 mg. Here is the method:
Over-encapsulation was utilized to maintain study blind. […] Approximately 50 older healthy female and male adult subjects (1:1 ratio) were randomized into 1 of 2 cohorts:Cohort 1 or Cohort 2, N=˜25 subjects per cohort.
There was a single AM fasting dose on Day 4 for both drugs. There was a 6-day wash-out period between drug cross-over.
Subjects were discharged on Day 4 following successful completion of all assessments and at the Investigator's discretion.
Subjects were then administered a single dose of their randomized treatment on the morning of Day 14 following an overnight fast of at least 8 hours. Subjects were discharged on Day 14 following successful completion of all assessments and at the Investigator's discretion.
An evening snack was served ≥3 hours following evening study medication administration. On Day 4 (Treatment Period 1) and Day 14 (Treatment Period 2), subjects were administered their assigned study drug once in the morning following an overnight fast of at least 8 hours (with approximately 240 mL of non-carbonated water). No additional fluids were allowed during the 1 hour pre- and post-dose.
Blood samples for PK were collected for Cohorts 1 and 2 at specified times during both periods, as follows: • Days 1 & 11:0 (pre-morning dose) • Days 2 & 12: no sampling. • Days 3 & 13:0 (pre-morning dose), and 1, 2, 3, 4, 6 (pre-mid-day dose), 7, 8, 9, 10, 12 (pre-evening dose), 13, 14, 15, 16, and 17 hours post-morning dose • Days 4 & 14:0 (pre-morning dose), and 1, 2, 3, 4, 6 (post-dose),

The next data set deals with older, healthy subjects. Briefly: Crossover study Part 2: safety and tolerability (TEAEs), fed and fasted. The data set is classed as in vivo, human. The source says:
Over-encapsulation was utilized to maintain study blind. […] Approximately 50 older healthy female and male adult subjects (1:1 ratio) were randomized into 1 of 2 cohorts:Cohort 1 or Cohort 2, N=˜25 subjects per cohort. Subjects in each cohort were randomized to treatment sequence as follows: • Sequence A: Pirfenidone to LYT-100 • Sequence B: LYT-100 to pirfenidone

Data set [1] has as its system patients with Idiopathic Pulmonary Fibrosis (IPF). As to the kind of experiment: IPF trial Part A: safety and tolerability (TEAEs, AESI, dose modifications, discontinuations). The data set is classed as in vivo. The note with it: 801 mg TID (N = 63). The method, then:
The primary objective was to determine the dose(s) to carry into Phase 3. […] Patients were randomized to one of the four treatments in a 1:1:1:1 ratio and stratified based on prior exposure to nintedanib (<6 months) versus nintedanib-naïve patients. Patients who completed the Double-blind Treatment Period (Part A) were offered participation in the Long-term Extension (Part B). […] For patients who participated in Part B, the follow-up was conducted at the end of Part B. A graphical illustration of an embodiment of the trial design is provided as FIG. 24B.
Safety endpoints included: Adverse events, concomitant medications, clinical laboratory findings (chemistry, hematology, urinalysis), physical examinations, ECGs, and vital signs. These will be summarized descriptively, where appropriate.
Tolerability endpoints included: Frequency of dose modifications (reductions and interruptions), time to first dose modification, (reduction or interruption), duration of adverse events of special interest, time to treatment discontinuation due to an adverse event of special interest and patient reported assessment of IPF symptoms, side-effects, severity, change and satisfaction.
In this study, AEs are reported for all patients from the time of consent until the completion of the Follow-up visit. AEs reported prior to the first dose are denoted as pre-treatment. SAEs are reported for all patients (randomized or not) from the time of consent. AEs reported from the time of consent to confinement on Day 0 were recorded as pre-treatment AEs.
Treatment emergent adverse events (TEAEs) are defined as an AE that occurs following first dose of study medication and were evaluated from the first administration of study drug on Day 1 until the Follow-up visit. […]
This study evaluated in particular the tolerability based on prioritized gastrointestinal adverse events (GI AEs). […]

The test system is the same in data set [2]. As to the kind of experiment: IPF trial Part A: clinical laboratory parameters, liver. In kind it is in vivo, human. The following applies: 801 mg TID (N = 63), N1 62.
In a further data set the target is T1, CYP1A2 (Homo sapiens, UniProt P05177).
T1 construct: host or cells: heterologous cell systems (not specified)
T1 sequence (P05177 1-516): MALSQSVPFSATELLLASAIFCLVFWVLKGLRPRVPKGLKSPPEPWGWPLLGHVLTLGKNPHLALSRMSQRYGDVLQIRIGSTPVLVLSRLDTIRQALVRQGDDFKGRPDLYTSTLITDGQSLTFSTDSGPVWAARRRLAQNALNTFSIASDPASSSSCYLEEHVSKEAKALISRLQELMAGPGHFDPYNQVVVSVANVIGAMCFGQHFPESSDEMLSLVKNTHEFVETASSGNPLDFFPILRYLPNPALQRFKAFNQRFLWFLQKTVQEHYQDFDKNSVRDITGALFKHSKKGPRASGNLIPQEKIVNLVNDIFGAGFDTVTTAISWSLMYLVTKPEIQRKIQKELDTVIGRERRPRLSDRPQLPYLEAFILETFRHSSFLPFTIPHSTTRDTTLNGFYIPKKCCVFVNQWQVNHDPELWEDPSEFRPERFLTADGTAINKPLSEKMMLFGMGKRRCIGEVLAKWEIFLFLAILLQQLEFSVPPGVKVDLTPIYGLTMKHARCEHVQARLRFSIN
As to the kind of experiment: In vitro stability with recombinant human CYP1A2. The following applies: recombinant human isozyme; read-out: t1/2 following incubation with CYP1A2 (converted). The data set is classed as in vitro ADME. The method, then: (§1) The half-life (t½) of each test article was determined.

Another data set addresses T2, CYP2C19 (Homo sapiens, UniProt P33261).
T2 construct: host or cells: heterologous cell systems (not specified)
As to the kind of experiment: In vitro stability with recombinant human CYP2C19. In kind it is in vitro ADME. The following applies: recombinant human isozyme; read-out: t1/2 following incubation with CYP2C19 (converted). Here is the method:
as §1

In another data set the target is T3, CYP2D6 (Homo sapiens, UniProt P10635).
T3 construct: host or cells: heterologous cell systems (not specified)
T3 sequence (P10635 whole entry): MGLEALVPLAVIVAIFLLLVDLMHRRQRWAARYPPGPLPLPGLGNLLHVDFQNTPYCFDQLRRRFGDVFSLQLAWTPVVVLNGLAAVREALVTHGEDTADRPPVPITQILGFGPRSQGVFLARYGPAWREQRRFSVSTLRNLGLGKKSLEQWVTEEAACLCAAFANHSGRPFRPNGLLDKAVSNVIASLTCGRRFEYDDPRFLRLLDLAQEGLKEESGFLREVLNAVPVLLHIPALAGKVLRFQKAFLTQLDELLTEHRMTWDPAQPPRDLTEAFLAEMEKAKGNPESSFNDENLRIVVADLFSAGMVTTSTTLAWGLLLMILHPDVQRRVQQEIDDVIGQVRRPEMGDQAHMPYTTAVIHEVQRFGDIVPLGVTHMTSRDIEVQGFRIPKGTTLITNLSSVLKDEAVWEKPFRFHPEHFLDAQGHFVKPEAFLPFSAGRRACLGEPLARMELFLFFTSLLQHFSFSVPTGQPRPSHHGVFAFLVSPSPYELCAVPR
Briefly: In vitro stability with recombinant human CYP2D6. The data set is classed as in vitro ADME. The note with it: recombinant human isozyme; read-out: t1/2 following incubation with CYP2D6 (converted). Here is the method: as §1

Data set [3] concerns patients with IPF. The following applies: cited from earlier work; for patients with IPF progression (decline ≥10% in % FVC or death over 52 weeks): Nathan 2018.
Data set [4] deals with patients with IPF. The following applies: cited from earlier work.
For data set [5] the following is noted: study PIPF-005, 801 mg three times daily (2403 mg/day), healthy older subjects; cited from earlier work.
Data set [6] deals with rat BLM induced lung fibrosis model. As to the kind of experiment: Rat bleomycin induced lung fibrosis model, Phase II (efficacy). The note with it: bleomycin rats, LYT-100 400 mg/kg QD / nintedanib 60 mg/kg BID.
Method: For Groups 4, 5, 6, and 7, bleomycin and vehicle dosing were conducted as indicated in Table 28 (0.45 mg/kg, at 1696 IU/mg of Bleomycin or saline on Day 1, 2, 3, 6 and 7).
The mark [7] stands for this setting: pooled phase 3 (Noble 2016), one year, vs placebo.
[8] abbreviates: observational study (Cottin 2018).

T2 sequence (P33261 whole entry): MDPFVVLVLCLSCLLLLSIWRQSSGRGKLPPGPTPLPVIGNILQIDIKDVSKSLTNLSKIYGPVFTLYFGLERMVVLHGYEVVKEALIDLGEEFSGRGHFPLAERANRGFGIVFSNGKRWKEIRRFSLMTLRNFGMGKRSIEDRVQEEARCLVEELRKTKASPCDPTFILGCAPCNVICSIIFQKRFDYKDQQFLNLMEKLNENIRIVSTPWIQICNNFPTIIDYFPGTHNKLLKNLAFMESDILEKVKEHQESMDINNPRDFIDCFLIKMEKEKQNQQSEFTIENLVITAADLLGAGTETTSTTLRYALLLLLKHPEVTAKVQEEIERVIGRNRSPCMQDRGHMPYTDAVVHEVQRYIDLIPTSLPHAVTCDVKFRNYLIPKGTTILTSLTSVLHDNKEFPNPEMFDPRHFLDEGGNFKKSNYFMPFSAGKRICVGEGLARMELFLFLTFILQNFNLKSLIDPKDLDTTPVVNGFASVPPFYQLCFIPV

`Cc1ccc(=O)n(-c2ccccc2)c1` [Pirfenidone, pirfenidone, reference compound]: in the data set “clinical” (AUC0-24, parent), the area under the curve AUC(0-t) (in general, exposure summed from dosing to a finite time, without extrapolation to infinity) was determined as 44100 ng·h/mL. For the same molecule, in the data set “clinical” (Cmax, parent), the highest concentration (Cmax) (commonly the peak of the concentration-time curve) was found to be 12700 ng/mL. Moreover, the “deaths or serious AEs” value in the data set with older, healthy subjects (Part 2) is “No deaths or serious AEs”. For the same molecule, in the data set on older, healthy subjects (in vivo), the “TEAEs leading to study discontinuation, subjects” value is listed as “one”. Further, in data set [1], the “Discontinued, Primary Reason: Death” value is 0 n (%). Besides, in data set [2], the “Alanine Aminotransferase (U/L) at Worst Post-Baseline, 3-5 ULN” value is 1 (1.6) n (%); the “Alanine Aminotransferase (U/L) at Worst Post-Baseline, 5-8 ULN” value is 0 n (%); the “Alanine Aminotransferase (U/L) at Worst Post-Baseline, >8 ULN” value was 0 n (%); the “Alanine Aminotransferase (U/L) at Worst Post-Baseline, Total (>3 ULN)” value is given as 1 (1.6) n (%). Moreover, in [2], the “Alanine Aminotransferase or Aspartate Aminotransferase (U/L) at Worst Post-Baseline, 3-5 ULN” value was 1 (1.6) n (%); the “Alanine Aminotransferase or Aspartate Aminotransferase (U/L) at Worst Post-Baseline, 5-8 ULN” value is given as 0 n (%); the “Alanine Aminotransferase or Aspartate Aminotransferase (U/L) at Worst Post-Baseline, >8 ULN” value was 0 n (%); the “Alanine Aminotransferase or Aspartate Aminotransferase (U/L) at Worst Post-Baseline, Total (>3 ULN)” value was 1 (1.6) n (%). Moreover, in data set [2], the “Aspartate Aminotransferase (U/L) at Worst Post-Baseline, 3-5 ULN” value is 0 n (%); the “Aspartate Aminotransferase (U/L) at Worst Post-Baseline, 5-8 ULN” value is 0 n (%); the “Aspartate Aminotransferase (U/L) at Worst Post-Baseline, >8 ULN” value is listed as 0 n (%); the “Aspartate Aminotransferase (U/L) at Worst Post-Baseline, Total (>3 ULN)” value is 0 n (%). Besides, the half-life on CYP1A2 is 3.18 h. In addition, the half-life on CYP2C19 is 2.13 h. For the same molecule, the half-life at CYP2D6 was 2.3 h. Further, the “patients with IPF progression (decline ≥10% in % FVC or death over 52 weeks)” value with patients with IPF [3] (<90% dose intensity) is reported as 21.6%. The “patients with IPF progression (decline ≥10% in % FVC or death over 52 weeks)” value in the data set with patients with IPF [3] (>90% dose intensity) is given as 11.6%. Also, in the data set with patients with IPF [3] (pooled phase 3 (Nathan 2018)), the “rate of permanent dose reductions” value is given as 31.5% and the “rate of treatment discontinuation” value is listed as 15.2%. Besides, the “reduction of risk of death or disease progression” value with patients with IPF [3] (pooled phase 3 (Noble 2016), 1 year, vs placebo) is 38%. In addition, in the data set with patients with IPF [3] (pooled phase 3 (Noble 2016), 1 year), the “FVC change, absolute difference vs placebo” value is given as 148 mL. In addition, in the data set with patients with IPF [3] (setting [7]), the “increase in proportion of patients with no decline in FVC % predicted” value is listed as 59.3% and the “reduction in proportion of patients with ≥10% decline in FVC % predicted or death” value was 43.8%. In addition, the “mean change from baseline to 1 year in FVC” value in the data set on patients with IPF [3] (pooled phase 3 (Noble 2016), pirfenidone group) is -216 mL. Besides, in the data set with patients with IPF [4] (setting [8]), the “discontinuations due to adverse events associated with pirfenidone” value is given as 27.9%, the “patients on a lower dose by two years” value is given as 13.8% and the “patients who had discontinued treatment by two years” value is recorded as 64.9%. Also, in the data set with patients with IPF [4] (observational study of 1,009 IPF patients (Cottin 2018), FIG. 1B), the “patients still on full dose (2,403 mg/day) by two years” value is 21.3% and 21%. Further, the Cmax in data set [5] was 11850 ng/mL.
Consider `COC(=O)c1ccc2c(c1)NC(=O)/C2=C(\Nc1ccc(N(C)C(=O)CN2CCN(C)CC2)cc1)c1ccccc1` [Nintedanib, nintedanib, reference compound], for which, in data set [6] (Day 8-27), the “hydroxyproline content (μg per mg of wet lung) vs bleomycin/vehicle” value is reported as “reduced hydroxyproline content”, the “lung fibrosis scores (histopathology) vs bleomycin/vehicle” value is listed as “did not affect the fibrosis scores”, the “lung sections with fibrosis Score 1” value is recorded as 37% and the “lung sections with fibrosis Score 2” value came to 33%. Further, in data set [6] (Day 8-27), the “lung weight ratio (% of body weight) vs bleomycin/vehicle” value is “trend for lower lung weight ratios”, the “mean lung weight vs bleomycin/vehicle” value is reported as “reduced lung weight”, the “median lung fibrosis scores vs bleomycin/vehicle” value was “reduced median fibrosis scores” and the “total left lung hydroxyproline (μg per left lung) vs bleomycin/vehicle” value was “lower levels of total hydroxyproline”. For the same molecule, in data set [6] (oral gavage Day 8-27), the body weight gain result was “showed modest improvement after Day 8 and the rate of body weight gain remained slower compared with the other groups”.
